Data published in ChEMBL document CHEMBL1148095, “6-Hydroxymanzamine A and 3,4-dihydromanzamine A, new alkaloids from the Okinawan marine sponge Amphimedon Sp” (J Nat Prod, 1994).
Values after ≈ are worked out from the molar mass of the structure shown.

How the values were obtained:
Micrococcus luteus = test: Antibacterial activity against Sarcina lutea; type: functional
KB = test: Cytotoxicity against human KB cells; type: functional, cell-based
L1210 = test: Cytotoxicity against mouse L1210 cells; type: functional, cell-based

Compound	MIC (Micrococcus luteus)	IC50 (KB)	IC50 (L1210)
O[C@]12C=C(C3=NCCc4c3[nH]c3ccccc43)[C@@H]3CCN(CCCC/C=C\CC1)C[C@@]31C[C@@H]3/C=C\CCCCN3[C@H]12 [3,4-DIHYDROMANZAMINE A]	4 mg/L (≈ 7.26 µM)	0.61 mg/L (≈ 1.11 µM)	0.48 mg/L (≈ 0.871 µM)
Oc1ccc2[nH]c3c(C4=C[C@@]5(O)CC/C=C\CCCCN6CCC4[C@]4(C[C@@H]7/C=C\CCCCN7[C@H]45)C6)nccc3c2c1 (stereo partly specified)	1.25 mg/L (≈ 2.21 µM)	2.5 mg/L (≈ 4.43 µM)	1.5 mg/L (≈ 2.66 µM)
